Reference: the supplement of paper PMC11061612

Experiments:
Test in all cases: combination Emax (second highest fraction inhibited in the dose matrix, 72 h); higher = more inhibition; extreme values may be limits of the assay
CAL-78 (Chondrosarcoma) = test system: CAL-78 (Chondrosarcoma)
How it was run: (§1)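 After 24 hours at 37°C and 5% CO2 in 1536-well plates, cells in DMEM/F12 or RPMI plus 10% FBS received two-drug dose matrices for 72 hours. Viability came from CellTiter-Glo 2.0 luminescence and was scaled as inhibition, anchored at 0 by vehicle wells and at 1 by blank wells. Combination Emax is taken as the second-highest inhibition in the matrix, and Bliss excess as the observed combination effect less EA + EB − EA·EB, with EA and EB the single-agent effects.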

[1] = test system: COR-L95 (Small Cell Lung Carcinoma)
How it was run: as §1

[2] = test system: CTV-1 (T-Lymphoblastic Leukemia)
How it was run: as §1

[3] = test system: DB (B-Cell Non-Hodgkin's Lymphoma)
How it was run: as §1

[4] = test system: DOV13 (Ovarian Carcinoma)
How it was run: as §1

[5] = test system: G-292-Clone-A141B1 (Osteosarcoma)
How it was run: as §1

[6] = test system: HPAC (Pancreatic Carcinoma)
How it was run: as §1

[7] = test system: HT-29 (Colorectal Carcinoma)
How it was run: as §1

IGR-1 (Melanoma) = test system: IGR-1 (Melanoma)
How it was run: as §1

[8] = test system: KATOIII (Gastric Carcinoma)
How it was run: as §1

[9] = test system: KM-H2 (Hodgkin's Lymphoma)
How it was run: as §1

[10] = test system: LS-513 (Colorectal Carcinoma)
How it was run: as §1

[11] = test system: MDA-MB-157 (Breast Carcinoma)
How it was run: as §1

[12] = test system: NCI-H1793 (Lung Adenocarcinoma)
How it was run: as §1

NCI-H2369 (Mesothelioma) = test system: NCI-H2369 (Mesothelioma)
How it was run: as §1

NCI-H2595 (Mesothelioma) = test system: NCI-H2595 (Mesothelioma)
How it was run: as §1

[13] = test system: SNU-C5 (Colorectal Carcinoma)
How it was run: as §1

[14] = test system: SW1783 (Low Grade Glioma)
How it was run: as §1

[15] = test system: SW756 (Cervical Carcinoma)
How it was run: as §1

[16] = test system: SW780 (Bladder Carcinoma)
How it was run: as §1

Row | combination Emax [9] | Compound | combination Emax (CAL-78 (Chondrosarcoma)) | combination Emax [1] | combination Emax [2] | combination Emax [3] | combination Emax [4] | combination Emax [5] | combination Emax [6] | combination Emax [7] | combination Emax (IGR-1 (Melanoma)) | combination Emax [8] | combination Emax [10] | combination Emax [11] | combination Emax [12] | combination Emax (NCI-H2369 (Mesothelioma)) | combination Emax (NCI-H2595 (Mesothelioma)) | combination Emax [13] | combination Emax [14] | combination Emax [15] | combination Emax [16]
1 | 0.766 | CCN(CCO)CCCOc1ccc2c(Nc3cc(CC(=O)Nc4cccc(F)c4)[nH]n3)ncnc2c1 [AZD2811] + C[C@@H]1COCCN1C2=NC(=NC(=C2)C3(CC3)[S@](=N)(=O)C)C4=C5C=CNC5=NC=C4 [AZD6738] (first compound max 1 µM, 7x7, partner max 10 µM) | 0.534 | 0.533 | 0.84 | 0.726 | 0.873 | 0.263 | 0.583 | 0.829 | 0.374 | 0.424 | 0.746 | 0.894 | 0.327 | 0.178 | 0.21 | 0.755 | 0.321 | 0.171 | 0.334
2 | 0.0312 | CN(CCO)CC[C@H](CSc1ccccc1)Nc1ccc(S(=O)(=O)NC(=O)c2ccc(N3CCC([C@@H](O)c4ccccc4-c4ccc(Cl)cc4)CC3)cc2)cc1S(=O)(=O)C(F)(F)F [AZD4320] + Cc1cc2ncnn2cc1Nc1ncc2c(n1)n(C1CCOCC1)c(=O)n2C [AZD7648] (first compound max 1 µM, 7x7, partner max 10 µM) | 0.46 | 1 | 0.315 | 0.976 | 0.779 | 0.624 | 0.321 | 0.149 | 0.33 | 0.151 | 0.155 | 0.0975 | 0.356 | 0.0705 | 0.12 | 0.225 | 0.366 | 0.112 | 0.484
3 | 0.271 | Cc1c2c(nn1C)CSCc1cc(n(C)n1)CSc1cc(c3ccccc3c1)OCCCc1c(C(=O)O)n(C)c3c-2c(Cl)ccc13 [AZD5991] + CCN(CCO)CCCOc1ccc2c(Nc3cc(CC(=O)Nc4cccc(F)c4)[nH]n3)ncnc2c1 [AZD2811] (first compound max 1 µM, 7x7, partner max 1 µM) | 0.868 | 0.449 | 0.278 | 0.987 | 0.603 | 0.276 | 0.623 | 0.383 | 0.338 | 0.116 | 0.623 | 0.846 | 0.2 | 0.176 | 0.324 | 0.288 | 0.246 | 0.204 | 0.213
4 | 0.974 | CC1(C)CCC(CN2CCN(c3ccc(C(=O)NS(=O)(=O)c4ccc(NCC5CCOCC5)c([N+](=O)[O-])c4)c(Oc4cnc5[nH]ccc5c4)c3)CC2)=C(c2ccc(Cl)cc2)C1 [Venetoclax] + C=CCn1c(=O)c2cnc(Nc3ccc(N4CCN(C)CC4)cc3)nc2n1-c1cccc(C(C)(C)O)n1 [AZD1775] (first compound max 1 µM, partner max 1 µM) | 0.51 | 0.862 | 0.992 | 1 | 0.912 | 0.263 | 0.757 | 0.89 | 0.396 | 0.382 | 0.697 | 0.905 | 0.481 | 0.27 | 0.189 | 0.57 | 0.307 | 0.436 | 0.148
5 | 0.968 | Cc1c2c(nn1C)CSCc1cc(n(C)n1)CSc1cc(c3ccccc3c1)OCCCc1c(C(=O)O)n(C)c3c-2c(Cl)ccc13 [AZD5991] + C=CCn1c(=O)c2cnc(Nc3ccc(N4CCN(C)CC4)cc3)nc2n1-c1cccc(C(C)(C)O)n1 [AZD1775] (first compound max 1 µM, partner max 1 µM) | 0.853 | 0.757 | 0.925 | 0.999 | 0.829 | 0.262 | 0.857 | 0.877 | 0.63 | 0.237 | 0.871 | 0.958 | 0.488 | 0.327 | 0.282 | 0.732 | 0.322 | 0.427 | 0.172
6 | 0.949 | C=CCn1c(=O)c2cnc(Nc3ccc(N4CCN(C)CC4)cc3)nc2n1-c1cccc(C(C)(C)O)n1 [AZD1775] + C1CN(CCC1(C(=O)N[C@@H](CCO)C2=CC=C(C=C2)Cl)N)C3=NC=NC4=C3C=CN4 [Capivasertib] (first compound max 3 µM, partner max 3 µM) | 0.733 | 0.666 | 0.983 | 0.893 | 0.775 | 0.492 | 0.636 | 0.834 | 0.482 | 0.476 | 0.81 | 0.837 | 0.428 | 0.3 | 0.281 | 0.795 | 0.688 | 0.555 | 0.399
7 | 0.774 | Cc1cc2ncnn2cc1Nc1ncc2c(n1)n(C1CCOCC1)c(=O)n2C [AZD7648] + C[C@@H]1COCCN1C2=NC(=NC(=C2)C3(CC3)[S@](=N)(=O)C)C4=C5C=CNC5=NC=C4 [AZD6738] (first compound max 10 µM, 7x7, partner max 10 µM) | 0.469 | 0.621 | 0.864 | 0.54 | 0.838 | 0.334 | 0.672 | 0.808 | 0.348 | 0.407 | 0.762 | 0.881 | 0.36 | 0.25 | 0.208 | 0.751 | 0.437 | 0.401 | 0.303

Further lines, the compound ahead of its results:

Row | Compound | combination Emax [9] | combination Emax (CAL-78 (Chondrosarcoma)) | combination Emax [1] | combination Emax [2] | combination Emax [3] | combination Emax [4] | combination Emax [5] | combination Emax [6] | combination Emax [7] | combination Emax (IGR-1 (Melanoma)) | combination Emax [8] | combination Emax [10] | combination Emax [11] | combination Emax [12] | combination Emax (NCI-H2369 (Mesothelioma)) | combination Emax (NCI-H2595 (Mesothelioma)) | combination Emax [13] | combination Emax [14] | combination Emax [15] | combination Emax [16]
8 | C[C@@H](c1ccc2nccn2c1)n1nnc2ncc(-c3cnn(C)c3)nc21 [Savolitinib] + CC1(C)CCC(CN2CCN(c3ccc(C(=O)NS(=O)(=O)c4ccc(NCC5CCOCC5)c([N+](=O)[O-])c4)c(Oc4cnc5[nH]ccc5c4)c3)CC2)=C(c2ccc(Cl)cc2)C1 [Venetoclax] (first compound max 1 µM, 7x7, partner max 1 µM) | 0.15 | 0.187 | 0.586 | 0.091 | 0.741 | 0.143 | 0.0932 | 0.143 | 0.149 | 0.114 | 0.337 | 0.0791 | 0.11 | 0.193 | 0.096 | 0.227 | 0.183 | 0.156 | 0.1 | 0.11
9 | COc1cccc(OCCCN)c1-c1cc(Nc2cnc(C#N)cn2)n[nH]1 [Prexasertib] + CCc1c2c(nc3ccc(O)cc13)-c1cc3c(c(=O)n1C2)COC(=O)[C@]3(O)CC [SN-38] (first compound max 1 µM, 7x7, partner max 0.3 µM) | 0.944 | 0.906 | 0.844 | 0.999 | 0.983 | 0.959 | 0.34 | 0.887 | 0.936 | 0.893 | 0.562 | 0.751 | 0.989 | 0.769 | 0.4 | 0.426 | 0.928 | 0.847 | 0.802 | 0.969
10 | Cc1cc2ncnn2cc1Nc1ncc2c(n1)n(C1CCOCC1)c(=O)n2C [AZD7648] + O=C(c1cc(Cc2n[nH]c(=O)c3ccccc23)ccc1F)N1CCN(C(=O)C2CC2)CC1 [Olaparib] (first compound max 10 µM, 7x7, partner max 10 µM) | 0.349 | 0.252 | 0.363 | 0.279 | 0.451 | 0.386 | 0.121 | 0.0971 | 0.0989 | 0.164 | 0.145 | 0.19 | 0.0869 | 0.371 | 0.0731 | 0.116 | 0.24 | 0.14 | 0.157 | 0.165
11 | NC1(C(=O)N[C@@H](CCO)c2ccc(Cl)cc2)CCN(c2ncnc3[nH]ccc23)CC1 [Capivasertib] + Cn1cnc2c(F)c(Nc3ccc(Br)cc3Cl)c(C(=O)NOCCO)cc21 [Selumetinib] (first compound max 10 µM, 7x7, partner max 10 µM) | 0.292 | 0.452 | 0.22 | 0.852 | 0.422 | 0.371 | 0.371 | 0.783 | 0.783 | 0.915 | 0.431 | 0.867 | 0.292 | 0.39 | 0.231 | 0.29 | 0.656 | 0.415 | 0.448 | 0.421
12 | CC(=O)c1c(C)c2cnc(Nc3ccc(N4CCNCC4)cn3)nc2n(C2CCCC2)c1=O [Palbociclib] + CC1(C)CCC(CN2CCN(c3ccc(C(=O)NS(=O)(=O)c4ccc(NCC5CCOCC5)c([N+](=O)[O-])c4)c(Oc4cnc5[nH]ccc5c4)c3)CC2)=C(c2ccc(Cl)cc2)C1 [Venetoclax] (first compound max 10 µM, 7x7, partner max 1 µM) | 0.383 | 0.278 | 0.709 | 0.921 | 0.962 | 0.752 | 0.0906 | 0.204 | 0.399 | 0.764 | 0.358 | 0.648 | 0.115 | 0.197 | 0.139 | 0.104 | 0.468 | 0.0456 | 0.0569 | 0.108
